Each structure is given as a SMILES string.

The target in this assay is T1, N-terminally GST-tagged DLK (catalytic domain amino acid 1-520) (Homo sapiens, UniProt Q12852).
T1 construct: N-terminally GST-tagged DLK (catalytic domain amino acid 1-520); purchased Carna Bioscience
T1 sequence (Q12852 1-520): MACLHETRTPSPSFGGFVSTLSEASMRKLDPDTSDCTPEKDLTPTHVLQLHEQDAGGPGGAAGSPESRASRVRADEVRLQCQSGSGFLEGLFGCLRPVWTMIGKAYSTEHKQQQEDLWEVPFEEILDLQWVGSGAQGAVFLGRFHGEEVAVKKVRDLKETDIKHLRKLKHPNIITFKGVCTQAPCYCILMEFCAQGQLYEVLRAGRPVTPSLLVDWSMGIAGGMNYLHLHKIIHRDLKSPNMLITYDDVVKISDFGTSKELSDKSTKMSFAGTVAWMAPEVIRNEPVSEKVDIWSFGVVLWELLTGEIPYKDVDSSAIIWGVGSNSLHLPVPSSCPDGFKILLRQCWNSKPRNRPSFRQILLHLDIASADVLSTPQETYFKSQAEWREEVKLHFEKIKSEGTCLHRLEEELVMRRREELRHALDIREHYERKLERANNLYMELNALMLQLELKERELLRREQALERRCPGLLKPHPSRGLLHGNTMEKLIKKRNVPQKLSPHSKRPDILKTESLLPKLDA
The assay can be described thus: DLK TR-FRET inhibition assay. It is filed as biochemical. The following applies: 5 nM GST-DLK, 40 nM HIS-MKK4 K131M substrate, 30 μM ATP, 60 minutes at ambient temperature. An outline of the steps: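 Phosphorylated MKK4 was quantified by TR-FRET (Eu-labelled anti-phospho-MKK4, D2 anti-HIS; 3 h, 665 and 615 nm emission) after EDTA quench. Reactions held 5 nM GST-tagged DLK catalytic domain (1-520), 40 nM HIS-MKK4 K131M substrate, 30 μM ATP and compound (3-fold series from 20 uM), 60 min, room temperature, pH 7.5.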
(In general: In TR-FRET formats the signal depends on donor and acceptor labels being close together.)
In turn, `CC(C)n1nc(-c2cnc(N)c(OC(F)(F)F)c2)cc1[C@H]1[C@@H]2C[C@@H](N3C[C@@H]4C[C@H]3CN4C)C[C@@H]21` [compound 209, 5-(1-isopropyl-5-((1R,3s,5S,6S)-3-((1S,4S)-5-methyl-2,5-diazabicyclo [2.2.1]heptan-2-yl)bicyclo [3.1.0]hexan-6-yl)-1H-pyrazol-3-yl)-3-(trifluoromethoxy) pyridin-2-amine] registered a Ki of 2.6 nM. Then `CC(C)n1nc(-c2cnc(N)c(OC(F)F)c2)cc1[C@H]1[C@@H]2C[C@H](O)C[C@@H]21` [compound 4, (1R,3r,5S,6r)-6-(3-(6-amino-5-(difluoromethoxy)pyridin-3-yl)-1-isopropyl-1H-pyrazol-5-yl) bicyclo[3.1.0]hexan-3-ol], with 4.51 nM. Then `CC(C)n1nc(-c2cnc(N)c(C(F)(F)F)c2)cc1[C@H]1[C@@H]2CC(C#N)C[C@@H]21` (single isomer, unassigned) [compound 191], with 7.8 nM; and `CC(C)n1nc(-c2cnc(N)c(C(F)(F)F)c2)cc1[C@H]1[C@@H]2C[C@H](n3cccn3)C[C@@H]21` [compound 111, 5-(5-((1R,3r,5S,6r)-3-(1H-pyrazol-1-yl)bicyclo[3.1.0]hexan-6-yl)-1-isopropyl-1H-pyrazol-3-yl)-3-(trifluoromethyl)pyridin-2-amine], with 8.61 nM. Take `CC(C)n1nc(-c2cnc(N)c(C(F)(F)F)c2)cc1[C@@H]1[C@H]2CC[C@H](O)[C@H]21` (single isomer, unassigned) [compound 143, 6-(3-(6-amino-5-trifluoromethylpyridin-3-yl)-1-isopropyl-1H-pyrazol-5-yl)bicyclo[3.1.0]hexan-2-ol]: the Ki was 31.9 nM. `CC(C)n1nc(-c2cnc(N)c(OC(F)(F)F)c2)cc1[C@H]1[C@@H]2C[C@H](N3C[C@@H]4C[C@H]3CN4C)C[C@@H]21` [compound 201, 5-(1-isopropyl-5-((1R,3r,5S,6S)-3-((1S,4S)-5-methyl-2,5-diazabicyclo [2.2.1]heptan-2-yl)bicyclo [3.1.0]hexan-6-yl)-1H-pyrazol-3-yl)-3-(trifluoromethoxy) pyridin-2-amine] registered a Ki of 1.3 nM. Then `Nc1ncc(-c2cc([C@H]3[C@@H]4C[C@@H](N5CCOCC5)C[C@@H]43)n(CC(F)F)n2)cc1C(F)(F)F` [compound 293, 5-(1-(2,2-difluoroethyl)-5-((1R,3s,5S,6r)-3-morpholinobicyclo [3.1.0]hexan-6-yl)-1H-pyrazol-3-yl)-3-(trifluoromethyl)pyridin-2-amine], with 3 nM; and `CC(C)n1nc(-c2cnc(N)c(C(F)(F)F)c2)cc1[C@H]1[C@@H]2C[C@@H](N3CCN(C4COC4)CC3)C[C@@H]21` [compound 117, 5-(1-isopropyl-5-((1R,3s,5S,6r)-3-(4-(oxetan-3-yl)piperazin-1-yl)bicyclo[3.1.0]hexan-6-yl)-1H-pyrazol-3-yl)-3-(trifluoromethyl) pyridin-2-amine], with 5.26 nM; and `Nc1ncc(-c2cc([C@H]3[C@@H]4C[C@@H](N5CCOCC5)C[C@@H]43)n(CC3CC3)n2)cc1C(F)(F)F` [compound 280, 5-(1-(cyclopropylmethyl)-5-((1R,3s,5S,6r)-3-morpholinobicyclo [3.1.0]hexan-6-yl)-1H-pyrazol-3-yl)-3-(trifluoromethyl)pyridin-2-amine], with 1.1 nM.

As to `CC(C)n1nc(-c2cnc(N)c(C(F)(F)F)c2)cc1[C@H]1[C@@H]2C[C@@H](N3CCS(=O)(=O)CC3)C[C@@H]21` [compound 9, 4-((1R,3s,5S,6r)-6-(3-(6-amino-5-(trifluoromethyl)pyridin-3-yl)-1-isopropyl-1H-pyrazol-5-yl)bicyclo[3.1.0]hexan-3-yl)thio-morpholine 1,1-dioxide], the inhibitory constant (Ki) amounted to 4 nM.

Compound `Nc1ncc(-c2cc([C@H]3[C@@H]4CC(O)C[C@@H]43)n(CC(F)F)n2)cc1OC(F)(F)F` (stereo partly drawn) [compound 94, (1R,5S,6r)-6-(3-(6-amino-5-(trifluoromethoxy)pyridin-3-yl)-1-(2,2-difluoroethyl)-1H-pyrazol-5-yl)bicyclo[3.1.0]hexan-3-ol] displayed a Ki of 1.45 nM. Then `CC(C)n1nc(-c2cnc(N)c(C(F)(F)F)c2)cc1[C@H]1[C@@H]2C[C@H](N3CCOCC3)C[C@@H]21` [compound 52, 5-(1-isopropyl-5-((1R,3r,5S,6r)-3-morpholinobicyclo[3.1.0]hexan-6-yl)-1H-pyrazol-3-yl)-3-(trifluoromethyl)pyridin-2-amine], with 3.97 nM; and `CC(C)n1nc(-c2cnc(N)c(OC(F)F)c2)cc1[C@H]1[C@@H]2C[C@H](N3CCOCC3)C[C@@H]21` [compound 86, 3-(difluoromethoxy)-5-(1-isopropyl-5-((1R,3r,5S,6r)-3-morpholino-bicyclo[3.1.0]hexan-6-yl)-1H-pyrazol-3-yl)pyridin-2-amine], with 1.6 nM; and `CC(C)n1nc(-c2cnc(N)c(OC(F)(F)F)c2)cc1[C@H]1[C@@H]2C[C@H](N3CCNCC3)C[C@@H]21` [compound 244, 5-(1-isopropyl-5-((1R,3r,5S,6r)-3-(piperazin-1-yl)bicyclo[3.1.0]hexan-6-yl)-1H-pyrazol-3-yl)-3 - (trifluoromethoxy)pyridin-2-amine], with 1.1 nM. Then `CO[C@H]1CCN([C@@H]2C[C@@H]3[C@H](C2)[C@H]3c2cc(-c3cnc(N)c(C(F)(F)F)c3)nn2CC(F)F)C1` [compound 150, 5-(1-(2,2-difluoroethyl)-5-((1R,3s,5S,6S)-3-((S)-3-methoxy-pyrrolidin-1-yl)bicyclo[3.1.0]hexan-6-yl)-1H-pyrazol-3-yl)-3-(trifluoro-methyl)pyridin-2-amine], with 3.6 nM; and `CC(C)n1nc(-c2cnc(N)c(OC(F)F)c2)cc1[C@H]1[C@@H]2C[C@H](N3CCN(CC(F)F)CC3)C[C@@H]21` [compound 264, 5-(5-((1R,3r,5S,6r)-3-(4-(2,2-difluoroethyl)piperazin-1-yl)bicyclo [3.1.0]hexan-6-yl)-1-isopropyl-1H-pyrazol-3-yl)-3-(difluoromethoxy)pyridin-2-amine], with 1.8 nM; and `CC(C)n1nc(-c2cnc(N)c(C(F)(F)F)c2)cc1[C@H]1[C@@H]2C[C@H](N3C[C@@H]4C[C@H]3CN4C)C[C@@H]21` [compound 200, 5-(1-isopropyl-5-((1R,3r,5S,6S)-3-((1S,4S)-5-methyl-2,5-diazabicyclo [2.2.1]heptan-2-yl)bicyclo [3.1.0]hexan-6-yl)-1H-pyrazol-3-yl)-3-(trifluoromethyl)pyridin-2-amine], with 2 nM. Then `CC(C)n1nc(-c2cnc(N)c(OC(F)F)c2)cc1[C@H]1[C@@H]2C[C@H](NCC(F)(F)F)C[C@@H]21` [compound 120, 3-(difluoromethoxy)-5-(1-isopropyl-5-((1R,3r,5S,6r)-3-((2,2,2-trifluoroethyl)amino)bicyclo [3.1.0]hexan-6-yl)-1H-pyrazol-3-yl) pyridin-2-amine], with 6.91 nM; and `CC(C)n1nc(-c2cnc(N)c(OC(F)F)c2)cc1[C@H]1[C@@H]2C[C@H](N3CC4(CCCO4)C3)C[C@@H]21` [compound 225, 5-(5-((1R,3r,5S,6r)-3-(5-oxa-2-azaspiro[3.4]octan-2-yl)bicyclo [3.1.0]hexan-6-yl)-1-isopropyl-1H-pyrazol-3-yl)-3-(difluoro-methoxy)pyridin-2-amine], with 4.2 nM. `Nc1ncc(-c2cc([C@H]3[C@@H]4C[C@H](N5CCCOCC5)C[C@@H]43)n(CC(F)F)n2)cc1C(F)(F)F` [compound 136, 5-(5-((1R,3r,5S,6r)-3-(1,4-oxazepan-4-yl)bicyclo[3.1.0]hexan-6-yl)-1-(2,2-difluoroethyl)-1H-pyrazol-3-yl)-3-(trifluoromethyl) pyridin-2-amine] showed a Ki of 7.1 nM. Then `CC(C)n1nc(-c2cnc(N)c(C(F)(F)F)c2)cc1[C@H]1[C@@H]2C[C@@H](N3CCN[C@@H](C)C3)C[C@@H]21` [compound 235, 5-(1-isopropyl-5-((1R,3s,5S,6S)-3-((S)-3-methylpiperazin-1-yl)bicyclo[3.1.0]hexan-6-yl)-1H-pyrazol-3-yl)-3-(trifluoromethyl) pyridin-2-amine], with 3.8 nM; and `CC(C)n1nc(-c2cnc(N)c(C(F)(F)F)c2)cc1[C@H]1[C@@H]2C[C@@H](N3CC4(COC4)C3)C[C@@H]21` [compound 51, 5-(5-((1R,3s,5S,6r)-3-(2-oxa-6-azaspiro[3.3]heptan-6-yl)bicyclo [3.1.0]hexan-6-yl)-1-isopropyl-1H-pyrazol-3-yl)-3-(trifluoro-methyl)pyridin-2-amine], with 3.55 nM; and `CC(C)n1nc(-c2cnc(N)c(C(F)(F)F)c2)cc1[C@@H]1[C@@H]2C[C@@H](N3CC(C#N)C3)C[C@@H]21` [compound 124, 1-((1R,3s,5S,6s)-6-(3-(6-amino-5-(trifluoromethyl)pyridin-3-yl)-1-isopropyl-1H-pyrazol-5-yl)bicyclo[3.1.0]hexan-3-yl) azetidine-3-carbonitrile], with above 1600 nM.

Usually Ki stands for a measure of affinity in units of concentration, obtained from inhibition or displacement. Low values mean a stronger hold on the target, high ones a looser hold on the target.

Source of the values: patent US9365583B2, “Substituted pyrazoles and uses thereof” (Genentech, Inc., priority 2013, dated 2016).
